Assays:
[1] = tested on: patients with schizophrenia; experiment: CATIE trial drug response (>20% decrease in PANSS Total Score) by HPCAL1/SV2C genotype; assay type: in vivo, human; details: for Response frequency: CATIE Phase 1; for OR vs. Low / OR vs. baseline: response; for OR vs. Low: vs low scoring genotype(s); for OR vs. baseline: vs sample not segmented by genotype
Description: (§1) The Clinical Antipsychotic Trials of Intervention Effectiveness (CATIE), a large federally funded clinical trial designed to assess the efficacy of antipsychotics in a real world setting, is a valuable resource for determining the role of genes in drug response (Stroup et al., Schizophr. Bull. 29:15-31 (2003); Lieberman et al., N. Engl. J. […] As part of the CATIE trial SNP genotyping was performed for roughly half of the trial participants (Sullivan et al., Mol. Psychiatry 13:570-584 (2008)). […] The design of the CATIE study has been described in detail by others (Stroup et al., Schizophr. Bull. 29:15-31 (2003); Lieberman et al., N. Engl. J. […] A total of 738 subjects consented to provide DNA for genetic study. […] Genotype and phenotype data for the CATIE trial were made available to qualified researchers through The NIMH Center for Collaborative Genetic Studies on Mental Disorders. For reduction to practice, we evaluated data for 417 patients with schizophrenia self reported as having exclusively European ancestry. […] Golden Helix, Bozeman, Mont.). To generate a P value, HelixTree calculates analysis of deviance (a likelihood ratio statistic) that compares the observed contingency table vs. an expected contingency table created with all the possible variations of the genetic model. […] The standard FDA registration trial definition of response of >20% decrease in Positive and Negative Syndrome Scale (PANSS Total Score) was used to assign subjects to a response category. […] Bull. 29:73-80 (2003)). […] The tables report odds ratios relative to the baseline values (sample not segmented by genotype) and relative to values for the low scoring, mutually exclusive genotype(s).

[2] = tested on: patients with schizophrenia; experiment: CATIE trial side effects (discontinued for safety concerns, COMPEFF score 5) by HPCAL1/SV2C genotype; assay type: in vivo, human; details: for OR vs. Low / OR vs. baseline: side effects; for OR vs. Low: vs low scoring genotype(s); for OR vs. baseline: vs sample not segmented by genotype
Description: as §1

[3] = SV2C rs6453205 genotype C/C (C)
[4] = HPCAL1 rs11679891 genotype A/C, C/C (C)
[5] = HPCAL1 rs13033617 genotype C/C (C)
[6] = HPCAL1 rs11679891 genotype C/C (C)
[7] = SV2C rs4610441 genotype C/C (C)
[8] = SV2C rs10064352 genotype T/T (T)
[9] = SV2C rs10474464 genotype C/C (C)
[10] = SV2C rs12152728 genotype C/C (C)
[11] = SV2C rs12522597 genotype G/G, A/G (G)
[12] = HPCAL1 rs7571627 genotype T/T (T)

SMILES: OCCN1CCN(CCCN2c3ccccc3Sc3ccc(Cl)cc32)CC1 [perphenazine]
- Response frequency [1, 3]: 0.7
- OR vs. Low [1, 3]: 3.36
- OR vs. baseline [1, 3]: 2.43
- Frequency Study ending side effects [2, 4]: 0.19
- OR vs. Low [2, 4]: >10
- OR vs. baseline [2, 4]: 1.44
- Frequency Study ending side effects [2, 5]: 0.27
- OR vs. Low [2, 5]: 3.74
- OR vs. baseline [2, 5]: 2.27

SMILES: OCCOCCN1CCN(C2=Nc3ccccc3Sc3ccccc32)CC1 [quetiapine]
- Response frequency [1, 6]: 0.6
- OR vs. baseline [1, 6]: 3.05
- Response frequency [1, 7]: 0.6
- OR vs. baseline [1, 7]: 3.05
- Response frequency [1, 8]: 0.6
- OR vs. Low [1, 8]: 3.67
- OR vs. baseline [1, 8]: 3.05
- Response frequency [1, 9]: 0.6
- OR vs. baseline [1, 9]: 3.05
- Response frequency [1, 10]: 0.5
- OR vs. Low [1, 10]: 2.70
- OR vs. baseline [1, 10]: 2.03

SMILES: Cc1nc2n(c(=O)c1CCN1CCC(c3noc4cc(F)ccc34)CC1)CCCC2 [risperidone]
- Response frequency ([1]; SV2C rs4704297 genotype C/C, C/G (C)): 0.45

SMILES: O=C1Cc2cc(CCN3CCN(c4nsc5ccccc45)CC3)c(Cl)cc2N1 [ziprasidone]
- Response frequency [1, 11]: 0.55
- OR vs. Low [1, 11]: 9.89
- OR vs. baseline [1, 11]: 1.49
- Frequency Study ending side effects [2, 12]: 0.33
- OR vs. Low [2, 12]: 4.98
- OR vs. baseline [2, 12]: 1.56
- Frequency Study ending side effects ([2]; SV2C rs246812 genotype A/A (A)): 0.5
- OR vs. Low ([2]; SV2C rs246812 genotype A/A (A)): 6.14
- OR vs. baseline ([2]; SV2C rs246812 genotype A/A (A)): 3.17
